One assay deals with T1, PI4KIIIB (Bos taurus, UniProt O02810).
T1 construct: made in house; host or cells: COS-7 cells, transient transfection, anti-HA immunoprecipitate on protein G Sepharose beads
Briefly: PI4KIIIB kinase assay. Format: biochemical, bovine.

A further assay addresses T2, PI3KC2G (Homo sapiens, UniProt O75747).
T2 sequence (O75747 1-1486): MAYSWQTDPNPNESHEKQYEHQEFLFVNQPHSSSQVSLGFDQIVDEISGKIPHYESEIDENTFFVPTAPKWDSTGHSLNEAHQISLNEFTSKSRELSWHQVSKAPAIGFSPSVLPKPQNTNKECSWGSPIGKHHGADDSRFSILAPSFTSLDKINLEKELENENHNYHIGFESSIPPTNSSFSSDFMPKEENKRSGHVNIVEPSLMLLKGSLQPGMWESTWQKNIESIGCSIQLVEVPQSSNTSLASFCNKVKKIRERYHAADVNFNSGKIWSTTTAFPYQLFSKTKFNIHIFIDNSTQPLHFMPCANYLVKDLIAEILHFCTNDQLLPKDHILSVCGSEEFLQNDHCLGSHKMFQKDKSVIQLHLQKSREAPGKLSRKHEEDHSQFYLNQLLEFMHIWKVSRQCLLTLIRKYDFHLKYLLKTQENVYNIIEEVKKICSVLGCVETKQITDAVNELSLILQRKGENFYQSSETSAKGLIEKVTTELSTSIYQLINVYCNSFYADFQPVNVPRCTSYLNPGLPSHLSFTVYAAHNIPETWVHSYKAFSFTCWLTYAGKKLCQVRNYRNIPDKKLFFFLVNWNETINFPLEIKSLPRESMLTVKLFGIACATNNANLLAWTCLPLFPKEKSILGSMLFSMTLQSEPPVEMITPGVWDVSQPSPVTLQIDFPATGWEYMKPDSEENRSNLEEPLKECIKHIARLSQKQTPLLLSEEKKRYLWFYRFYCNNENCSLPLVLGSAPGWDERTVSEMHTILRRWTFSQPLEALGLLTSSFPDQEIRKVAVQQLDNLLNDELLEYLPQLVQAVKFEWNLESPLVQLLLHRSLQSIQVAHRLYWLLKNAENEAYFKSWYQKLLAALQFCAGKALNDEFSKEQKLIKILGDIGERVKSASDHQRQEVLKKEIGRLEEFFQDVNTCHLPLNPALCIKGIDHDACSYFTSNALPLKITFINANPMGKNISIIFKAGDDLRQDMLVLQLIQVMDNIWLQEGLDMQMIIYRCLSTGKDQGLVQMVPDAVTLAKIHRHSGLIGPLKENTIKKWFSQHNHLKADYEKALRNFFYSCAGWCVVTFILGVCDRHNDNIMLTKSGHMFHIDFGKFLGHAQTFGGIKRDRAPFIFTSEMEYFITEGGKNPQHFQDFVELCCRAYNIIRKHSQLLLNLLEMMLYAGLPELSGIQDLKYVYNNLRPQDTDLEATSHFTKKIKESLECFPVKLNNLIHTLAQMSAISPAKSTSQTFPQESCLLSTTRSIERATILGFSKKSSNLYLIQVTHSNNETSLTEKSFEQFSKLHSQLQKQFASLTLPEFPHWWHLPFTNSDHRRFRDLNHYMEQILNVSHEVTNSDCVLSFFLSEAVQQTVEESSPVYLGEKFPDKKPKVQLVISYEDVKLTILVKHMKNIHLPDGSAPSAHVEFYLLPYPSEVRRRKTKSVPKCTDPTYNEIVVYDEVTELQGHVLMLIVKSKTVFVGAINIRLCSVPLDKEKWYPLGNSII
Briefly: PI3KC2G kinase assay. The format is biochemical.

T1 sequence (O02810 whole entry): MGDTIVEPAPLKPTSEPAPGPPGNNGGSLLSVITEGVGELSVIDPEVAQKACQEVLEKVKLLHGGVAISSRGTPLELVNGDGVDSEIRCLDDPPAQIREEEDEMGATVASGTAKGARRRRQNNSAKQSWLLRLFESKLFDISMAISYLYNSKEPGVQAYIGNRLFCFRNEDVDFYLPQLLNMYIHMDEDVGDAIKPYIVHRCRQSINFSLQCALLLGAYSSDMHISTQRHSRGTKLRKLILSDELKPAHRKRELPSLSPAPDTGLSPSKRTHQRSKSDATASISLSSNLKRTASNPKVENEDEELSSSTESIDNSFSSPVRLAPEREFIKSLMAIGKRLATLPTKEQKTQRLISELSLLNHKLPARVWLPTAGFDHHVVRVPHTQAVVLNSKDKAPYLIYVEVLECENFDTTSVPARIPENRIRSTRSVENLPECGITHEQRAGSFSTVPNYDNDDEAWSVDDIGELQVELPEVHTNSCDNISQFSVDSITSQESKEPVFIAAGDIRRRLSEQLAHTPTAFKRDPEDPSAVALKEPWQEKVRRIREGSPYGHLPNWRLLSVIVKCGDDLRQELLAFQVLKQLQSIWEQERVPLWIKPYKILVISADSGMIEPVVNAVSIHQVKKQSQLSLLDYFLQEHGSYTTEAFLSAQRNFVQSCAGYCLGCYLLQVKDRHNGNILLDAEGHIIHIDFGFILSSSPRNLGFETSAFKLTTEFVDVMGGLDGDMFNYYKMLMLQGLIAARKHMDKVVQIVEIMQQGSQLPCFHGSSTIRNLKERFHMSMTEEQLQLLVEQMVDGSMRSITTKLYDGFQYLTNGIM

Regarding `COc1ncc(-c2sc(NC(=O)CC3CCOCC3)nc2C)cc1S(=O)(=O)NC1CCCC(O)C1` (centres unmarked) [Compound S-263], the results for the IC50 on PI4KIIIB and on PI3KC2G were under 100 nM and 100 to 1000 nM, respectively.

What is called IC50 is the concentration at which inhibition is half-maximal. A high value points to a need for much substance.

Source of the values: US10428060B2, “PI-kinase inhibitors with anti-infective activity” (The Board of Trustees of the Leland Stanford Junior …, priority 2011, dated 2019).
